Experimental data from patent US20240058373A1, “FIBRE MIXTURE FOR YOUNG CHILDREN” (N.V. Nutricia, priority 2020, published 2024).

Test system: standard human gut microbiota pool
Experiment: i-screen fermentation of fibres by faecal microbiota: pH and SCFA/BCFA formation
Format: cell-based
Details: after 24 h of fermentation in SIEM medium at 37° C., fibres 10 mg/ml
Description: For studying fermentation of fibres by microbiota the i-screen platform was used, see Schuren et al., The i-screen: A Versatile Preclinical Platform for Gut Microbiota Studies, J Prob Health 2019 7:212. A standard human gut microbiota pool was used for the fermentation. This pool was established via fecal donations from 6 healthy volunteers (Caucasian individuals, age 25-60 years, no antibiotic use in the 3 months preceding the donation, self-assessment of health status). Before starting the i-screen fermentation with the test compounds, the standardized fecal pool was incubated in SIEM (standard ileal effluent medium) under anaerobic conditions overnight (37° C.; 300 rpm) in order to activate the bacteria.
The fibres were tested at a concentration of 10 mg/ml. All compounds were tested in triplicate.
The following conditions were applied: • 1 No added fibres, SIEM medium only • 2 Mixture of beta-galactooligosaccharides (Vivinal GOS, Friesland Campina), inulin (Orafti HP (Beneo-Orafti Orey) Beneo BE), resistant starch (Novelose 330 (Ingredion UK Ltd) and non-soluble soy polysaccharides, source Fibrim 2000 (DuPont/Danisco) in a weight ratio of 38:38:4:20, prior art MF4 • 3 Mixture of beta-galactooligosaccharides (Vivinal GOS, Friesland Campina), inulin (Orafti HP (Beneo-Orafti Orey) Beneo BE), resistant starch (Novelose 330 (Ingredion UK Ltd) and soluble soy polysaccharides, source Soyafibe-S-Ca100 (Fuji Oil Co, Ltd), in a weight ratio of 38:38:4:20, new MF4 • 4 Lactulose (Duphalac Lactulose, Solvay, the Netherlands)
After 24 hours of fermentation in SIEM medium at 37° C., samples were collected for pH measurements, DNA isolation and for metabolite analysis. The remaining material was stored at −20° C.
DNA was isolated as described by Ladirat et al. J Microbiol Meth 2013, 92(3), 387-397 with some minor adjustments: the samples were initially mixed with 300 μl lysis buffer (Agowa, Berlin, Germany), 500 μl zirconium beads (0.1 mm), and 500 μl phenol, before being introduced to a Bead Beater (BioSpec Products, Bartlesville, OK, USA) for 3 min. 16S amplicon sequencing DNA was analyzed by using 16S rDNA amplicon sequencing. The V4 hypervariable region was targeted. […] Amplicon quality and size were analyzed on a Fragment Analyzer (Advanced Analytical Technologies, Inc.). […] SCFA covering acetate, propionate, and n-butyrate and branched chain fatty acids (BCFA) covering iso-butyrate and iso-valerate were analyzed as described by as described by Van Nuenen Microbiology in Health and Disease 2003, 15: 137-144. […]
For the analysis of total lactate, material resulting from the i-screen fermentation was sampled and centrifuged at 4,000 g for 5 minutes. […] The D- and L-lactate were determined by the Arena 20XL analyser. […]

For `OC[C@H]1O[C@@H](O[C@@H]2[C@@H](CO)OC(O)(CO)[C@H]2O)[C@H](O)[C@@H](O)[C@H]1O` (mixture of isomers) [lactulose, Lactulose], the “Mean Butyrate” value was 49.39 mM, the “Mean Propionate” value was 6.61 mM and the “Mean Acetate” value (value (s.d.)) was 44.93 (1.40) mM. For the same compound, the “Mean Total SCFA” value (value (s.d.)) was 100.9 (2.67) mM.
